According to patent publication US20250288549A1, “SYNTHETIC PROCESS FOR PRODUCTION OF LIPOXIN B4 AND ANALOGUES THEREOF” (UNIVERSITY HEALTH NETWORK, priority 2022, published 2025):
“Also recorded” adds a separate entry of the source.

Key:
[1] = test system: HT22 neuronal cells; experiment: HT22 glutamate injury model, cell viability by XTT assay; type: cell-based; conditions: for neuroprotection in glutamate injury model: 1 μM LXB4, glutamate challenge
Source text: In order to confirm the bioactivity of the synthesized material, its neuroprotective effects were confirmed in a neuronal injury model. Recent clinical failures of a variety of neuroprotection trials have intensified interest in new treatment strategies. Evidence is accumulating that lipoxins and other lipid mediators can have an important impact on neuroinflammation and neuronal survival.[13,38] […] Yet the lack of efficient syntheses of LXB4 coupled with the expensive cost from commercial sources (USD$806/100 μg, Cayman Chemical)[36] have made this new mechanism of action challenging to modify and study. In this regard the presently described synthetic route towards LXB4, and analogues thereof, provide a benefit for improving production and/or reducing cost of production of LXB4 and analogues thereof. Therefore, the neuroprotective activity of newly synthesized LXB4 was compared it against the commercial source to confirm its activity.[36] For this assay, HT22 neuronal cells were pre-treated with LXB4 from both sources (commercial vs. in-house), followed by a glutamate challenge to induce excitotoxic cell death.[14] Cell viability was then measured using an XTT assay.
HT22 cells (SCC129, EMD Millipore) were grown on 100-mm tissue culture dishes (83.3902.300, Sarstedt) and maintained in high glucose DMEM (Sigma, D5796-500ML) supplemented with 10% fetal bovine serum (080-150, Wisent) and 1% Penstrep (15140122, Gibco) at 37° C. in a 5% CO2 atmosphere incubator (67/340,1045, CellXpert C170, Eppendorf). Cells used for experiments were maintained at a <80% confluency and <25 passages, and were dissociated using TrypIE (12604013, Gibco).
HT22 cells were seeded at 4×10^3 cells in 100 μL of the high glucose DMEM+10% fetal bovine serum+1% Penstrep media on replicate wells of 96-well plates (83.3924.300, Sarstedt) for 20 hours at 37° C. in a 5% CO2 atmosphere humidified incubator. Cells were then pretreated with 5 μL of the indicated LXB4 concentration, or vehicle, one hour prior to addition of 3 mM glutamate stressor. Cells were exposed for 13 hours, then evaluated for cell viability using an XTT assay, according to the manufacturer's instructions (11465015001, Roche). The resulting absorbance values were read in a BMG CLARIOstar microplate reader under 490 nm excitation following 2 hours of XTT incubation and analyzed using Graphpad Prism 9 for ANOVA analyses and curve fitting.

[2] = Storage and handling stability of LXB4; type: physicochemical
Method: Instability of LXB4 presented a substantial obstacle its synthesis and purification. […] Telescoping the final transformations from 27 to 2, preventing light exposure, and storing all crude intermediates in a methanol solution were required to obtain LXB4 of sufficient purity. LXB4 could be stored as a solution in methanol or ethanol at −20° C. for several weeks or at −80° C. for one to three months before substantial degradation was observed.
Dimethylethoxysilane (560 uL, 4.03 mmol, 8.0 equiv.) was added in one portion, followed by dropwise addition of Karstedt's catalyst (platinum(0)-1,3-divinyl-1,1,3,3,-tetramethyldisoloxane complex, 2% Pt) (115 μL, 0.010 mmol, 2 mol %). The round bottom flask was covered with foil to prevent UV exposure and the solution was stirred overnight at room temperature. […] The crude reaction mixture was filtered through a silica plug, which was washed with Et2O, and the collected filtrate was dried under vacuum to afford a yellow-brown oil. This oil was redissolved in anhydrous THF (4.4 mL) under argon. The solution was again wrapped in foil, and a solution of TBAF in THF (1.0 M, 4.0 mL, 8.0 equiv.) was added dropwise. The reaction was stirred at room temperature for 20 minutes. […] Another […] was added dropwise. […] The reaction was quenched by the addition of phosphate buffer (pH 7) and water and extracted with diethyl ether. The combined organic phase was dried over Na2SO4 and concentrated in vacuo. The crude oil was immediately redissolved in THF/H2O (3:1, 2.5 mL) and treated with LiOH (12.1 mg, 0.50 mmol, 1.0 equiv.) mmol. The resulting solution was stirred at room temperature in a round-bottom flask wrapped in aluminium foil until TLC indicated complete conversion. The reaction mixture was flash filtered through celite to remove any residual LiOH solid and washed with THF. The remaining solvent was removed in vacuo to afford a sticky yellow residue, which was immediately redissolved in MeOH. […] This material was purified by reverse phase HPLC (XBridge BEH OBD Prep column, 130A, 5 μM, 30 mm×150 mm) using a mobile phase of H2O+0.05% NH4OH (A) and acetonitrile+0.05% NH4OH (B) and a gradient elution of 97:3 A:B to 67:33 A:B. After lyophilization, we obtained 98.7 mg of LXB4 for a yield of 56% over three steps. LXB4 should be stored on dry ice until injected into the HPLC. In a solution in methanol at room temperature, formation of impurities which are extremely difficult to separate by HPLC occurred in 1-2 hours.

[3] = test system: neuronal cell types; conditions: cited from earlier work
[4] = test system: retinal ganglion cell death; conditions: acute and chronic models of retinal ganglion cell death, glaucoma; cited from earlier work

Structure (SMILES): CCCCC[C@H](O)[C@H](O)/C=C/C=C/C=C\C=C\[C@@H](O)CCCC(=O)O [LXB4, (5S,6E,8Z,10E,12E,14R,15S)-5,14,15-trihydroxyicosa-6,8,10,12-tetraenoic acid]
- neuroprotection in glutamate injury model ([1]; n=8, p<0.05): significantly neuroprotective
- neuroprotection in glutamate injury model ([1]; n=8, p<0.05, listed as synthesized LXB4): significant protection
- EC50 ([1]; Mus musculus, HT-22, glutamate injury, dose response curve, n=8): 293 nM
- stability to air and light [2]: highly unstable
- stability in HPLC buffer ([2]; HPLC buffer): stable in HPLC buffer for several hours
- stability stored as a solid ([2]; crude or purified material, room temperature): rapid degradation
- stability stored as a solid ([2]; low temperature (−20° C.)): rapid degradation
- time to formation of impurities ([2]; solution in methanol at room temperature): 1 to 2 h
- storage time before substantial degradation ([2]; solution in methanol or ethanol at −20° C.): several weeks
- storage time before substantial degradation ([2]; solution in methanol or ethanol at −80° C.): one to three
- potency relative to LXA4 ([3]; established neuronal injury model, also primary cortical, hippocampal and retinal ganglion cells): 20 fold
- potency and efficacy in direct neuroprotection compared with LXA4 ([3]; variety of neuronal cell types, acute and chronic injury models of glaucoma): significantly more potent and efficacious than LXA4
- efficacy in vivo [4]: efficacy in vivo

Structure (SMILES): CCCCC[C@H](O)[C@H](O)/C=C/C=C/C=C\C=C\[C@@H](O)CCCC(=O)O [commercial LXB4, reference compound]
- neuroprotection in glutamate injury model ([1]; n=8, p<0.05): significantly neuroprotective; also recorded: significant protection
